Measurements as given in patent EP0148660A1, “Beta-carboline derivatives, process for their preparation and medicaments containing them” (Etablissement Public dit: CENTRE NATIONAL DE LA RECHERCHE …, priority 1983, dated 1985).

How the values were obtained:
souris [1] = assay: Antagonism of the anticonvulsant action of diazepam (PTZ) in mice; format: in vivo; conditions: PTZ 70 mg/kg s.c.; diazépam 1 mg/kg s.c. 25 minutes before, carbamate 10 mg/kg 15 minutes before; 80 % of controls convulse
Procedure: ① Absence d'effets antagonistiques sur l'action anticonvulsivante du diazépam :
20 souris (30 g, ♂) ont été traitées avec 70 mg/kg s.c. de PTZ. Une moitié a servi de contrôle; l'autre moitié a reçu 1 mg/kg s.c. de diazépam 25 minutes avant le PTZ et 10 mg/kg de carbamate 15 minutes avant le PTZ.

souris [2] = assay: Antagonism of convulsions induced by méthyl β-carboline in mice; format: in vivo; conditions: 1 mg/kg s.c. 5 minutes before méthyl β-carboline 1 to 10 mg/kg s.c.
Procedure: Par contre, cette molécule antagonise les effets convulsivants induits par un agoniste inverse de la méthyl-β-carboline.
100 souris (30 g, ♂) sont traitées par des doses croissantes de méthyl B-carboline de 1 mg à 10 mg/kg s.c. La moitié des souris a été prétraitée par 1 mg/kg de méthyl carbamate s.c. 5 minutes avant l'injection de méthyl β-carboline.

souris [3] = assay: Convulsions induced by pentylenetetrazol (PTZ) in mice; format: in vivo; conditions: PTZ 70 mg/kg s.c.
Procedure: 40 souris "Swiss", d, 30 g recoivent 70 mg/kg s.c. de PTZ. Les souris sont divisées en 4 lots : 1 lot contrôle, 1 lot reçoit 10 mg/kg s.c. de méthyl carbamate, 5 minutes avant le PTZ, 1 lot la même dose de méthyl carbamate 15 minutes avant, et le dernier lot une dose de 1 mg/kg de méthyl carbamate 15 minutes avant. 60 % à 80 % des souris présentent des convulsions dans les 4 lots sans différences statistiquement significatives entre les lots.

[4] = target: récepteur des benzodiazépines; assay: Displacement of 3H-flunitrazepam from its receptor in rat cortex tissue (in vitro); format: binding; conditions: for IC50: 3H-flunitrazépam 4 nM, cortex du Rat, 0°, 60 mn, pH 7,4
Excerpt: Pour déterminer l'activité pharmacologique des molécules de cette invention, leur affinité pour le récepteur des benzodiazépines a d'abord été étudiée. Cette affinité est déterminée par l'aptitude de la molécule à déplacer une benzodiazépine radioactive (le flunitrazépam tritié) de son récepteur.
Ce pouvoir de déplacement de la molécule est indiqué par son IC50, c'est-à-dire la concentration du produit nécessaire pour déplacer 50 % des liaisons spécifiques du ^3H-flunitrazépam avec son récepteur, à partir de tissus préparés du cerveau du Rat.
Pour ces essais in vitro, il s'agit d'incuber à 0° pour 60 mn une suspension de tissus provenant du cortex du Rat (= 10 mg de tissu par échantillon) dans un milieu tamponné (pH 7,4, 0,05 M Tris-HCl) en présence d'une concentration fixe de ^3H-flunitrazépam (= 4 nM, 89 Ci/mmole) et d'une concentration variable du produit (10^-3 à 10^-9 M). La suspension est ensuite filtrée et la radioactivité restant sur le filtre est déterminée par scintillation. L'information obtenuepermet de dessiner une courbe de déplacement contre la concentration du produit et de calculer l'IC50 du produit.

souris [5] = assay: Conflict test (Skinner box), anxiolytic effect of diazepam in mice; format: in vivo
Procedure: ③. Absence d'effet antagoniste sur les effets anxiolytiques du diazépam : • 9 souris ont été entraînées dans un test de conflit décrit par PRADO et al. (Nature 301, 64-66, 1983). En bref les animaux privés de nourriture sont soumis à des séances quotidiennes de 15 minutes dans une boîte de Skinner. Ces sessions comprennent successivement : 5 mn sans conflit (où la souris reçoit une boulette de nourriture chaque fois qu'elle appuie sur la pédale), 5 mn de conflit (où l'appui sur la pédale entraîne à la fois la délivrance d'une boulette et un choc électrique léger), 5 mn sans conflit. Les performances des souris (nombre d'appuis/mn) baissent durant les phases de conflit.

[6] = tested on: récepteur des benzodiazépines; assay: In vivo displacement of tritiated flunitrazepam in mouse brain regions; design: species or system souris; conditions: for flunitrazépam tritié déplacé: 10 mg/kg; for DE50 (dose effective pour déplacer 50 % du flunitrazépam tritié): s.c.
Procedure: Ceci est démontré par des tests de déplacement du flunitrazépam tritié par le méthyl β-carbamate invivo.
200 µCi/kg de flunitrazépam tritié sont injectées i.v. chez la souris. Après 10 minutes, une dose connue du méthyl β-carbamate (allant de 2,5 mg/kg jusqu'à 10 mg/kg) est injectée s.c. et 10 minutes plus tard, l'animal est sacrifié. Le cerveau est rapidement disséqué. Le cervelet, le cortex et l'hippocampe sont isolés et broyés séparément et ensuite filtrés. La quantité de radio-activité restant sur le filtre est inversement proportionnelle au pouvoir de déplacement du méthyl β-carbamate.

souris [7] = assay: Blockade of diazepam-induced sedation, rotarod in mice; format: in vivo; conditions: 10 mg/kg s.c.; diazépam 2 mg/kg s.c.
Procedure: ②. Blocage de la sédation induite par le diazépam :
20 souris (30 g, ♂) ont été entraînées sur le rotarod (bâton de 2,5 cm 0 tournant à 4 rev/mn) pendant 5 minutes. Les souris entraînées seront utilisées si, lors du test précédant l'injection, elles restent 1 minute sans tomber du bâton. Les souris reçoivent toutes 2 mg/kg s.c. de diazépam et sont testées toutes les 10 minutes. Le pourcentage de souris restant 1 minute sur le bâton est indiqué en ordonnée de la figure.

Babouin photosensible [8] = assay: Photosensitive baboon, intermittent light stimulation (SLI); format: in vivo
Excerpt: Cette molécule appartient à la classe des agonistes inverses. Elle provoque des convulsions. Le modèle utilisé est le Babouin photosensible. Sur ce modèle, l'application de stimulation lumineuse intermittente (SLI) par l'intermédiaire d'une lampe stroboscopique provoque des manifestations épileptiques d'amplitude variable. Suivant l'intensité de leur réponse, les animaux sont classés de 0 à + 4.
2 animaux PP 86 et 88 ont été utilisés. Le 86 est + 3 au bout de 30 secondes de SLI, le 5.5.1983. L'administration de l'éthylamino-3-β-carboline (1 mg/kg) réduit cette latence à 10 secondes, 2 minutes après l'injection. lh30 après l'injection, cette latence est toujours très diminuée (20 secondes). […] Ces résultats sont très différents de ceux de la méthyl-S-carboline dont l'effet convulsivant disparait au bout de 20 minutes chez le Babouin.
Le 88 a montré le même type de résultat. Après 15 secondes de SLI, il est + 3 le 5.5.1983. Après l'administration de 2 mg/kg de N-éthyl carboline, la SLI provoque un stade + 3 au bout de 5 secondes. […] Après 5 heures, la latence est toujours raccourcie (10 secondes).

Babouin photosensible [9] = conditions: comparison; cited from earlier work

COC(=O)Nc1cc2c(cn1)[nH]c1ccccc12 [-NHCO2CH3, méthoxycarbonylamino-3-β-carboline]
convulsions in mice treated with diazépam + méthyl carbamate (souris [1]): aucun phénomène convulsif
effect on convulsions induced by méthyl β-carboline (souris [2]): antagonise d'une façon compétitive
activité agonistique sur les convulsions induites par le PTZ (souris [3]): dénuée d'activité agonistique
IC50 [4]: 71 nM
IC50 compared with éthylamino-3-β-carboline ([4]; relative to the IC50 of éthylamino-3-β-carboline): presque dix fois plus faible
3H-flunitrazépam déplacé ([4]; à haute concentration): 80%
effect on the anxiolytic effect of diazépam (conflict test) (souris [5]; given simultaneously with diazepam 5 mg/kg s.c.): ne bloque pas cet effet anxiolytique du diazépam
selectivity between brain regions / receptor sub-classes ([6]; cervelet (BZ1) versus cortex and hippocampe (BZ1 and BZ2), souris): sélectivité pour les récepteurs du cervelet
flunitrazépam tritié déplacé ([6]; cervelet): ~100%
DE50 (dose effective pour déplacer 50 % du flunitrazépam tritié) ([6]; cervelet, souris): 4 mg/kg
flunitrazépam tritié déplacé ([6]; cortex): ~75%
DE50 (dose effective pour déplacer 50 % du flunitrazépam tritié) ([6]; cortex, souris): 5 mg/kg
flunitrazépam tritié déplacé ([6]; hippocampe): ~75%
DE50 (dose effective pour déplacer 50 % du flunitrazépam tritié) ([6]; hippocampe, souris): 6 mg/kg
effect on the sedative effect of diazépam (rotarod) (souris [7]): antagonise l'effet sédatif du diazépam

CCOC(=O)c1cc2c(cn1)[nH]c1ccccc12 [-CO2CH2CH3, ester éthyliquede l'acide β-carboline-3-carboxylique, reference compound]
IC50 [4]: 2 nM

CCNc1cc2c(cn1)[nH]c1ccccc12 [-NHCH2CH3, éthylamino-3-β-carboline]
IC50 [4]: 460 nM
persistence of the effect on latency (Babouin photosensible [8]; animal 88, 2 mg/kg): persiste une heure
latence du stade + 3 sous SLI (Babouin photosensible [8]; animal 88, 2 mg/kg (15 secondes before treatment)): 5 secondes
latence du stade + 3 sous SLI (Babouin photosensible [8]; animal 88, 2 mg/kg, après 5 heures): 10 secondes
spontaneous seizure after injection (Babouin photosensible [8]; animal PP 86, 1 mg/kg): crise épileptique tonico-clonique spontanée
latence du stade + 3 sous SLI (Babouin photosensible [8]; animal PP 86, 1 mg/kg, 1h30 après l'injection): 20 secondes
latence du stade + 3 sous SLI (Babouin photosensible [8]; animal PP 86, 1 mg/kg, 2 minutes après l'injection (30 secondes before treatment)): 10 secondes

CC(=O)Nc1cc2c(cn1)[nH]c1ccccc12 [-NHCOCH3, acétylamino-3-β-carboline]
IC50 [4]: 4000 nM

CN1C(=O)CN=C(c2ccccc2)c2cc(Cl)ccc21 [diazepam, reference compound]
effect on the fall of lever presses during conflict (souris [5]; 5 mg/kg s.c.): s'oppose à cette baisse des appuis

Nc1cc2c(cn1)[nH]c1ccccc12 [-NH2, amino-3-β-carboline]
IC50 [4]: 25000 nM

O=CNc1cc2c(cn1)[nH]c1ccccc12 [-NHCHO, formylamino-3-β-carboline]
IC50 [4]: 4700 nM

CCOC(=O)Nc1cc2c(cn1)[nH]c1ccccc12 [-NHCO2CH2CH3, éthoxycarbonylamino-3-β-carboline]
IC50 [4]: 80 nM

CS(=O)(=O)Nc1cc2c(cn1)[nH]c1ccccc12 [-NHSO2CH3, méthylsulfonylamino-3-β-carboline]
IC50 [4]: 62000 nM

CN1C(=O)CN=C(c2ccccc2F)c2cc([N+](=O)[O-])ccc21 [Flunitrazepam, reference compound]
IC50 [4]: 4 nM

O=C(Nc1cc2c(cn1)[nH]c1ccccc12)C(F)(F)F [-NHCOCF3, trifluoroacétylamino-3-β-carboline]
IC50 [4]: 6300 nM

COC(=O)c1cc2c(cn1)[nH]c1ccccc12 [méthyl-S-carboline, méthyl β-carbolyne-3-carboxylate]
time after which the convulsant effect disappears (Babouin photosensible [9]): 20 min
